Tests used:
Format in all cases: in vivo, BALB/c nude mice
IL-6 = test: ELISA of serum IL-6 in M5 tumor-bearing mice; conditions: relative to the control group
Protocol: The serum levels of IL-6 in the blood samples were measured using commercial mouse kits (ab213749 and ab100697; Abcam, Cambridge, MA, USA) according to the manufacturer's protocol. 50 μl of samples were added to each of the wells in 96-well antibody-coated plates and then incubated for 2 hours at room temperature. 50 μl of the detector antibody solution was loaded into each well and incubated the plates for a further 1 hour at room temperature. Next, […] of HRP-Streptavidin solution (ab210901, Abcam) was added to each well, and once again incubated the plates for 1 hour at room temperature. Finally, 100 μl of tetramethylbenzidine substrate was added to each well and incubated the plates for another 10 min in the dark, again at room temperature. The reaction was stopped by adding 100 μl of stop solution. The wavelength of absorbance was at 450 nm and results were expressed in pg/ml.

CD45 = test: IHC analysis of CD45 in M5 tumors; conditions: IHC staining, FIGS. 11A and 11B
TGF-β = test: IHC analysis of TGF-β in M5 tumors; conditions: relative to the control group
Protocol: (§1) The mice were observed daily for clinical signs, weighed them every three days, and at one month after tumor-cell implantation euthanized them with an overdose of anesthetic combined with carbon dioxide. Immediately before sacrificing the mice, the blood was collected from them under anesthesia for hematological assessment. After euthanizing the mice, the tumors were excised immediately. The tumor specimens were divided into two groups. One group was treated with 10% formalin and embedded the specimens in paraffin. These specimens were investigated by hematoxylin and eosin staining; terminal deoxyribonucleotidyl transferase (TdT)-mediated biotin-16-dUTP nick-end labeling (TUNEL assay; APO-BrdU TUNEL Assay Kit, BD Pharmingen, San Diego, CA, USA); and IHC for IL-1β, TNF-α, TGF-β, and CD44, using primary antibodies against these factors (Merck, Billerica, MA, USA). Protein expression was assessed via IHC with the […] mouse/rabbit polymer detection system produced by BioTnA (Kaohsiung, Taiwan). A high-resolution digital microscope (Moticam 2300, Motic Instruments, Richmond, Canada) equipped with Motic Images Plus (version 2.0) was used to capture and analyze the images. The other groups of tumor specimens were first minced coarsely and homogenized, and then stored in a freezer at -80° C.

cyclooxygenase-2 (COX-2) = test: Western blot of COX-2 in M5 tumors; conditions: vs control group
Protocol: The mice were observed daily for clinical signs, weighed them every three days, and at one month after tumor-cell implantation euthanized them with an overdose of anesthetic combined with carbon dioxide. Immediately before sacrificing the mice, the blood was collected from them under anesthesia for hematological assessment. After euthanizing the mice, the tumors were excised immediately. The tumor specimens were divided into two groups. One group was treated with 10% formalin and embedded the specimens in paraffin. These specimens were investigated by hematoxylin and eosin staining; terminal deoxyribonucleotidyl transferase (TdT)-mediated biotin-16-dUTP nick-end labeling (TUNEL assay; APO-BrdU TUNEL Assay Kit, BD Pharmingen, San Diego, CA, USA); and IHC for IL-1β, TNF-α, TGF-β, and CD44, using primary antibodies against these factors (Merck, Billerica, MA, USA). Protein expression was assessed via IHC with the TAlink mouse/rabbit polymer detection system produced by BioTnA (Kaohsiung, Taiwan). […]
Western blotting on the second group of tumor specimens was performed according to standard protocol (Wu et al 2020). […] Protein expression and phosphorylation were quantified with ImageJ (National Institutes of Health, Bethesda, […], USA).

cleaved caspase 3 = test: Western blot of cleaved caspase 3 in M5 tumors; conditions: vs control group
Protocol: as §1, with “[…] Protein expression and phosphorylation were quantified with ImageJ (National Institutes” for “The other groups”, “Health, Bethesda, […], USA).” for “tumor specimens were first minced coarsely and homogenized, and then stored in a freezer at -80° C.”

S6K1 = test: Western blot of S6K1 in M5 tumors; conditions: FIG. 7A

SMILES | serum IL-6 expression reduction (IL-6) [%] | CD45 activity, times higher than the control group (CD45) [times] | TGF-β expression reduction (TGF-β) | Expression of cyclooxygenase-2 (COX-2) (cyclooxygenase-2 (COX-2)) | cleaved caspase 3 expression (cleaved caspase 3) | expression of S6K1 (S6K1)
N.N.[Cl][Pt][Cl] [Cisplatin, cisplatin, reference compound] | 62.8 | 1.4 | about 26.6% | lower | significantly higher | –
Cc1ccc(S(N)(=O)=O)cc1 [PTS, p-Toluenesulfonamide] | 57.5 | 1.3 | ~23.3% | lower | significantly higher | downregulated

— patent publication US12409158B2, “Combination therapy for treating cancer” (GONGWIN BIOPHARM CO., LTD, priority 2022, dated 2025)
